Target: MAPK14 (human) (UniProt Q16539)
Experiment: Inhibition of MAPK14 Kinase Activity

Chain of MAPK14 (human) (Q16539 whole entry, looked up): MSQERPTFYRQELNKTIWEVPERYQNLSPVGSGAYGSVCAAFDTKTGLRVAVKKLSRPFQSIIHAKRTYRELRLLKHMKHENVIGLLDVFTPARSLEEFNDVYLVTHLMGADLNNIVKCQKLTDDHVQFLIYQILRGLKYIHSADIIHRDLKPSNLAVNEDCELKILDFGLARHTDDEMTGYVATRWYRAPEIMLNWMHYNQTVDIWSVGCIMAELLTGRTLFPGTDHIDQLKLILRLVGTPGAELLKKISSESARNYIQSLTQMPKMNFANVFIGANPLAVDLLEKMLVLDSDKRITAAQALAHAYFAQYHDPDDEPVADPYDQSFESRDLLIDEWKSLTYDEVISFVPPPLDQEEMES

Structure (SMILES) | IC50
Cc1c(F)cc(C(=O)NC2CC2)cc1-c1ccc2c(ccn2-c2cccnc2)c1 | < 10 µM
CCNC(=O)c1ccc(-c2n[nH]c3cc(-c4cc(C(=O)NCC)ccc4C)ccc23)nc1 | < 10 µM
CCNC(=O)c1ccc(C)c(-c2ccc3c(-c4cc(C)nn4C)n[nH]c3c2)c1 | < 10 µM
Cc1c(F)cc(C(=O)NC2CC2)cc1-c1ccc2c(cnn2Cc2cccnc2)c1 | < 10 µM
Cc1ccc(C(=O)NC2CC2)cc1-c1ccc2c(-c3ccc(F)cc3)n[nH]c2c1 | < 10 µM
COc1ccc(C2N=Nc3cc(-c4cc(C(=O)NC5CC5)ccc4C)ccc32)cc1 (configuration not stated) | < 10 µM
Cc1c(F)cc(C(=O)NC2CC2)cc1-c1ccc2c(cnn2Cc2cc[n+]([O-])cc2)c1 | < 10 µM
Cc1c(F)cc(C(=O)NC2CC2)cc1-c1ccc2c(cnn2Cc2ccc[n+]([O-])c2)c1 | < 10 µM
CCNC(=O)c1cc(F)c(C)c(-c2ccc3c(-c4ccc(C)cc4)n[nH]c3c2)c1 | < 10 µM
CCNC(=O)c1ccc(C)c(-c2ccc3c(-c4ccc(OCC)cc4)n[nH]c3c2)c1 | < 10 µM
Cc1c(F)cc(C(=O)NC2CC2)cc1-c1ccc2c(cnn2Cc2ccncc2)c1 | < 10 µM
CCNC(=O)c1cc(F)c(C)c(-c2ccc3c(-c4ccc(F)cc4C)n[nH]c3c2)c1 | < 10 µM
CCNC(=O)c1cc(F)c(C)c(-c2ccc3c(-c4c(C)noc4C)n[nH]c3c2)c1 | < 10 µM
Cc1c(F)cc(C(=O)Nc2cc[nH]n2)cc1-c1ccc2c(-c3ccc(F)cc3)n[nH]c2c1 | < 10 µM
Cc1c(F)cc(C(=O)NC2CC2)cc1-c1ccc2c(cnn2-c2cc(=O)[nH]cn2)c1 | < 10 µM
COc1ccc(-c2noc3cc(-c4cc(C(=O)NC5CC5)cc(F)c4C)ccc23)cc1 | < 10 µM
Cc1cc(F)ccc1-n1ncc2cc(-c3cc(C(=O)NC4CC4)cc(F)c3C)ccc21 | < 10 µM
Cc1c(F)cc(C(=O)NC2CC2)cc1-c1ccc2c(-c3ccc(O)cc3)noc2c1 | < 10 µM
Cc1cnn(C)c1NC(=O)c1cc(F)c(C)c(-c2ccc3c(-c4ccc(F)cc4)n[nH]c3c2)c1 | < 10 µM
Cc1ccc(C(=O)Nc2c(C)noc2C)cc1-c1ccc2c(-c3ccc(F)cc3)n[nH]c2c1 | < 10 µM
CCNC(=O)c1ccc(C)c(-c2ccc3c(-c4ccc(S(C)(=O)=O)cc4)n[nH]c3c2)c1 | < 10 µM
Cc1cc(-n2ncc3cc(-c4cc(C(=O)NC5CC5)cc(F)c4C)ccc32)nc(C)n1 | < 10 µM
CCNC(=O)c1cc(F)c(C)c(-c2ccc3c(-c4cccc[n+]4[O-])n[nH]c3c2)c1 | < 10 µM
CCNC(=O)c1cc(F)c(C)c(-c2ccc3c(-c4cccnc4)n[nH]c3c2)c1 | < 10 µM
Cc1c(F)cc(C(=O)NC2CC2)cc1-c1ccc2c(cnn2-c2ccc(NCC3CCCCC3)cc2)c1 | < 10 µM

Structure (SMILES) | IC50
CCNC(=O)c1cc(F)c(C)c(-c2ccc3c(-c4ncccn4)n[nH]c3c2)c1 | < 10 µM
CCNC(=O)c1cc(F)c(C)c(-c2ccc3c(-c4ccccn4)n[nH]c3c2)c1 | < 10 µM
Cc1c(F)cc(C(=O)NC2CC2)cc1-c1ccc2c(ccn2-c2ccc(C#N)cc2)c1 | < 10 µM
CCn1nccc1NC(=O)c1cc(F)c(C)c(-c2ccc3c(-c4ccc(F)cc4)n[nH]c3c2)c1 | < 10 µM
CCNC(=O)c1cc(F)c(C)c(-c2ccc3c(-c4ccc(C(F)(F)F)cc4)n[nH]c3c2)c1 | < 10 µM
CCNC(=O)c1ccc(C)c(-c2ccc3c(-c4ccc(F)nc4)n[nH]c3c2)c1 | < 10 µM
CCNC(=O)c1cc(F)c(C)c(-c2ccc3c(-c4ccc(OC)nc4)n[nH]c3c2)c1 | < 10 µM
CCNC(=O)c1cc(F)c(C)c(-c2ccc3c(-c4ccnc(C)c4)n[nH]c3c2)c1 | < 10 µM
CNC(=O)Cc1ccc(-n2ncc3cc(-c4cc(C(=O)NC5CC5)cc(F)c4C)ccc32)cc1 | < 10 µM
CCNC(=O)c1ccc(C)c(-c2ccc3c(-c4cnccn4)n[nH]c3c2)c1 | < 10 µM
CCNC(=O)c1cc(F)c(C)c(-c2ccc3c(-c4ccc(Cl)cc4)n[nH]c3c2)c1 | < 10 µM
Cc1c(F)cc(C(=O)NC2CC2)cc1-c1ccc2c(ccn2-c2ccccn2)c1 | < 10 µM
Cc1c(F)cc(C(=O)NC2CC2)cc1-c1ccc2c(ccn2-c2cccc(C#N)c2)c1 | < 10 µM
CCNC(=O)c1ccc(C)c(-c2ccc3c(-c4cncnc4)n[nH]c3c2)c1 | < 10 µM
Cc1c(F)cc(C(=O)NC2CC2)cc1-c1ccc2c(cnn2Cc2ccccn2)c1 | < 10 µM
Cc1c(F)cc(C(=O)NC2CC2)cc1-c1ccc2c(cnn2Cc2ccc(C(F)(F)F)cc2)c1 | < 10 µM
Cc1c(F)cc(C(=O)Nc2ccnn2C)cc1-c1ccc2c(-c3ccc(F)cc3)n[nH]c2c1 | < 10 µM
Cc1c(F)cc(C(=O)NC2CC2)cc1-c1ccc2c(cnn2Cc2cccc[n+]2[O-])c1 | < 10 µM
Cc1c(F)cc(C(=O)NC2CC2)cc1-c1ccc2c(cnn2-c2ccc(N3CCOCC3)cc2)c1 | < 10 µM
Cc1cc(Cn2ncc3cc(-c4cc(C(=O)NC5CC5)cc(F)c4C)ccc32)no1 | < 10 µM
CCNC(=O)c1cc(F)c(C)c(-c2ccc3c(-c4cnc(C)n4C)n[nH]c3c2)c1 | < 10 µM
CCNC(=O)c1ccc(C)c(-c2ccc3c(-c4ccc(OC)cc4)n[nH]c3c2)c1 | < 10 µM
CCNC(=O)c1cc(F)c(C)c(-c2ccc3c(-c4cccnc4OC)n[nH]c3c2)c1 | < 10 µM
CCNC(=O)c1cc(F)c(C)c(-c2ccc3c(-c4ccc(F)cc4OC)n[nH]c3c2)c1 | < 10 µM
CCNC(=O)c1ccc(C)c(-c2ccc3c(-c4ccc(N5CCOCC5)nc4)n[nH]c3c2)c1 | < 10 µM

Next, values leading:

IC50 | Structure (SMILES)
< 10 µM | Cc1c(F)cc(C(=O)NC2CCC2)cc1-c1ccc2c(cnn2-c2ccccc2)c1
< 10 µM | Cc1ccc(C(=O)NC2CCC2)cc1-c1ccc2c(cnn2-c2ccc(F)cc2)c1
< 10 µM | COCCNc1ccc(-n2ncc3cc(-c4cc(C(=O)NC5CC5)cc(F)c4C)ccc32)cc1
< 10 µM | Cc1c(F)cc(C(=O)NC2CC2)cc1-c1ccc2c(cnn2-c2ccc(S(C)(=O)=O)cc2)c1
< 10 µM | Cc1c(F)cc(C(=O)NC2CC2)cc1-c1ccc2c(cnn2-c2ccc(NC3CCOCC3)cc2)c1
< 10 µM | Cc1c(F)cc(C(=O)NC2CC2)cc1-c1ccc2c(cnn2-c2ccc(Br)cc2)c1
< 10 µM | Cc1ccc(C(=O)Nc2ccc(F)cc2)cc1-c1ccc2c(cnn2-c2ccccc2)c1
< 10 µM | Cc1c(F)cc(C(=O)Nc2cc[nH]n2)cc1-c1ccc2c(cnn2-c2ccccc2)c1
< 10 µM | Cc1c(F)cc(C(=O)NC2CC2)cc1-c1ccc2c(cnn2-c2ccc(C(F)(F)F)cc2)c1
< 10 µM | Cc1c(F)cc(C(=O)NC2CC2)cc1-c1ccc2c(cnn2-c2ccc(F)cc2)c1
< 10 µM | Cc1ccc(C(=O)NC2CC2)cc1-c1ccc2c(cnn2-c2ccc(F)cc2)c1
< 10 µM | CCNC(=O)c1cc(F)c(C)c(-c2ccc3c(cnn3-c3ccccc3)c2)c1
< 10 µM | Cc1c(F)cc(C(=O)NC2CC2)cc1-c1ccc2c(cnn2-c2ccc(NCCN(C)C)cc2)c1
< 10 µM | Cc1c(F)cc(C(=O)NC(C)C)cc1-c1ccc2c(cnn2-c2ccccc2)c1
< 10 µM | Cc1c(F)cc(C(=O)Nc2ccc(F)cc2)cc1-c1ccc2c(cnn2-c2ccccc2)c1
< 10 µM | Cc1c(F)cc(C(=O)NC2CC2)cc1-c1ccc2c(cnn2Cc2ccc(F)cc2)c1

IC50 | Structure (SMILES)
< 10 µM | Cc1c(F)cc(C(=O)NC2CC2)cc1-c1ccc2c(cnn2-c2ccc(NCCCN(C)C)cc2)c1
< 10 µM | Cc1c(F)cc(C(=O)NCC2CC2)cc1-c1ccc2c(cnn2-c2ccccc2)c1
< 10 µM | Cc1c(F)cc(C(=O)NC2CC2)cc1-c1ccc2c(cnn2-c2ccc(NCC(O)CO)cc2)c1 (configuration not stated)
< 10 µM | Cc1c(F)cc(C(=O)NC2CC2)cc1-c1ccc2c(cnn2Cc2ccccc2)c1
< 10 µM | CCCCNC(=O)c1cc(F)c(C)c(-c2ccc3c(cnn3-c3ccccc3)c2)c1
< 10 µM | Cc1c(F)cc(C(=O)Nc2ncccn2)cc1-c1ccc2c(cnn2-c2ccccc2)c1
< 10 µM | Cc1c(F)cc(C(=O)NC2CC2)cc1-c1ccc2c(cnn2-c2ccc(NCC3CCCO3)cc2)c1 (configuration not stated)
< 10 µM | Cc1ccc(C(=O)Nc2c(C)cnn2C)cc1-c1ccc2c(-c3ccc(F)cc3)n[nH]c2c1
< 10 µM | Cc1c(F)cc(C(N)=O)cc1-c1ccc2c(cnn2-c2ccccc2)c1
< 10 µM | Cc1cccc(-n2ncc3cc(-c4cc(C(=O)NC5CC5)cc(F)c4C)ccc32)c1
< 10 µM | Cc1c(F)cc(C(=O)Nc2cccnn2)cc1-c1ccc2c(cnn2-c2ccccc2)c1
< 10 µM | CNC(=O)c1cc(F)c(C)c(-c2ccc3c(cnn3-c3ccccc3)c2)c1
< 10 µM | Cc1c(F)cc(C(=O)NC2CC2)cc1-c1ccc2c(cnn2-c2ccccc2)c1
< 10 µM | CCCNC(=O)c1cc(F)c(C)c(-c2ccc3c(cnn3-c3ccccc3)c2)c1
< 10 µM | Cc1c(F)cc(C(=O)NC2CCCC2)cc1-c1ccc2c(cnn2-c2ccccc2)c1
< 10 µM | CCNC(=O)c1ccc(C)c(-c2ccc3c(-c4ccc(F)cc4)n[nH]c3c2)c1

From the Kinase Knowledgebase extract (Sharma et al. 2016)
